Experiment [1] deals with T1, human full-length glucocorticoid receptor (Homo sapiens, UniProt P04150).
T1 construct: a cell lysate containing recombinantly expressed human full-length glucocorticoid receptor; purchased PanVera Co., Madison, Wis; P2816
T1 sequence (P04150 1-777): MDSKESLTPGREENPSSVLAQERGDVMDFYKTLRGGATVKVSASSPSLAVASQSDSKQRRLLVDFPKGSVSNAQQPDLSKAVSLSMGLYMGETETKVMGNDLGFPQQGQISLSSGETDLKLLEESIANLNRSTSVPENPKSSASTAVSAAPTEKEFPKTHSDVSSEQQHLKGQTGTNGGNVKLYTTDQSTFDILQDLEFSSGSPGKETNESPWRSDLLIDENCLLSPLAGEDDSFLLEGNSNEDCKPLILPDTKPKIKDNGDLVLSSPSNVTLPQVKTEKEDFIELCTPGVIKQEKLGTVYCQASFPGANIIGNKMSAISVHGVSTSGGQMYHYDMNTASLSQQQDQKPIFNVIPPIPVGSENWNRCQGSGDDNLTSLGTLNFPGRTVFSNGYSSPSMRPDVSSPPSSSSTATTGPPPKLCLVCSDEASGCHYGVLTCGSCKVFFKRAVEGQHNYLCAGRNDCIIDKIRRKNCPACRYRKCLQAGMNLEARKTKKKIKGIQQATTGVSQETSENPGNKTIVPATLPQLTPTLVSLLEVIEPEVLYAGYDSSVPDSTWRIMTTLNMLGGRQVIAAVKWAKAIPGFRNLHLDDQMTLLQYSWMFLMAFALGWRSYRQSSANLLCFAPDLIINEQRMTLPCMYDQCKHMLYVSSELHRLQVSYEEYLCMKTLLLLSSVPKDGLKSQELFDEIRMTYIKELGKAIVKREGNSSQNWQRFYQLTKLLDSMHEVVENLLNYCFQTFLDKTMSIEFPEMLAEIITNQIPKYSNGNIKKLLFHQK
As to the kind of experiment: Glucocorticoid Receptor Binding Assay (II), fluorescence polarization competitor kit (Fluormone GS1). The settings on record: cell lysate with recombinant human full-length GR, 1 nM Fluormone GS1, FP. The procedure:
In order to measure the binding of compounds on the glucocorticoid receptor a commercially available kit was used (Glucocorticoid receptor competitor assay kit, PanVera Co., Madison, Wis., P2816). Briefly, a cell lysate containing recombinantly expressed human full-length glucocorticoid receptor was mixed with a fluorescently labeled glucocorticoid (1 nM Fluormone GS1) in the presence or absence of test compound. After one hour at room temperature, the fluorescence polarization (FP) of the samples were measured.

Experiment [2] relates to AP-1 induced transcriptional activity. As to the kind of experiment: Cellular Transrepressional Assay (AP-1 luciferase reporter in A549 cells, PMA-activated). Particulars: A549 cells with 7x AP-1 luciferase reporter, 10 ng/ml PMA, read-out: AP-1 (EC50, nM) (Cellular Transrepression Assay). The experiment is classed as cell-based. Summed up:
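Test molecules spanning 0.1 nM to 40 μM were co-incubated 7 h with 10 ng/ml PMA in A549 cells stably carrying a 7× AP-1-driven luciferase plasmid. Repression, as % reduction of PMA-alone luminescence measured 10 min after reagent addition, was curve-fitted to give EC50s.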

Where two headings read alike, the source gives them in different places.

As usually defined, the Ki is a measure of affinity in units of concentration, obtained from inhibition or displacement. What is called EC50 is the concentration that produces a half-maximal response. Regarding `O=C(Nc1nncs1)C(c1ccccc1)C(c1ccccc1)c1ccc2[nH]ncc2c1` (single isomer, unassigned) [152-diast A, 3-(1H-Indazol-5-yl)-2,3-diphenyl-N-(1,3,4-thiadiazol-2-yl)propanamide], the Ki in experiment [1] was found to be 9.8 nM. In addition, the EC50 in experiment [2] (Homo sapiens, A549, 7 h) stood at 2500 nM.
As for `O=C(Nc1nncs1)C(c1ccccc1)C(c1ccccc1)c1ccc2[nH]ncc2c1` (single isomer, unassigned) [152-diast B, 3-(1H-Indazol-5-yl)-2,3-diphenyl-N-(1,3,4-thiadiazol-2-yl)propanamide], the Ki in experiment [1] was determined as 1150 nM. Further, the EC50 in experiment [2] (7 hours) came to 5000 nM.
Regarding `CC(C)(C(=O)NC1CCCC1O)C(Cc1ccccc1)c1ccc2c(cnn2-c2ccc(F)cc2)c1` (single isomer, unassigned) [Example 124-isomerA], in experiment [1], the Ki was 7.5 nM. In addition, the EC50 in experiment [2] (7 hours) is more than 10000 nM.
Take `CC(C)(C(=O)NC1CCCC1O)C(Cc1ccccc1)c1ccc2c(cnn2-c2ccc(F)cc2)c1` (single isomer, unassigned) [Example 124-isomerB]: the Ki in experiment [1] is 2.3 nM. In addition, the EC50 in experiment [2] (7 hours) was more than 10000 nM.
`CC(C)(C(=O)NC1CCCC1O)C(Cc1ccccc1)c1ccc2c(cnn2-c2ccc(F)cc2)c1` (single isomer, unassigned) [Example 124-isomerC]: in experiment [1], the Ki turned out to be 2.1 nM. In experiment [2] (7 hours), the EC50 stood at 1250 nM.
In the case of `CC(C)(C(=O)NC1CCCC1O)C(Cc1ccccc1)c1ccc2c(cnn2-c2ccc(F)cc2)c1` (single isomer, unassigned) [Example 124-isomerD], the Ki in experiment [1] came out at 0.64 nM. For the same compound, the EC50 in experiment [2] (7 hours) is 40 nM.
On to `CC(C)(C(=O)NC1CCCC1)C(Cc1ccccc1)c1ccc2c(cnn2-c2ccc(F)cc2)c1` (single isomer, unassigned) [Example 130, N-cyclopentyl-3-(1-(4-fluorophenyl)-1H-indazol-5-yl)-2,2-dimethyl-4-phenylbutanamide], for which the Ki in experiment [1] is 6.1 nM. Moreover, the EC50 in experiment [2] (Homo sapiens, A549, 7 h) is more than 10000 nM.
As to `CC(C)(C(=O)NC1CCCC1)C(Cc1ccccc1)c1ccc2c(cnn2-c2ccc(F)cc2)c1` (single isomer, unassigned) [Example 131, N-cyclopentyl-3-(1-(4-fluorophenyl)-1H-indazol-5-yl)-2,2-dimethyl-4-phenylbutanamide], the Ki in experiment [1] is 3 nM. Moreover, the EC50 in experiment [2] (7 hours) is more than 10000 nM.
With `O=C(Nc1nncs1)C(c1ccccc1)C(c1ccccc1)c1ccc2c(cnn2-c2ccc(F)cc2)c1` (single isomer, unassigned) [Example 145-isomerA, 3-(1-(4-fluorophenyl)-1H-indazol-5-yl)-2,3-diphenyl-N-(1,3,4-thiadiazol-2-yl)propanamide], in experiment [1], the Ki was determined as 18 nM. Moreover, the EC50 in experiment [2] (7 hours) turned out to be 5000 nM.
As to `O=C(Nc1nncs1)C(c1ccccc1)C(c1ccccc1)c1ccc2c(cnn2-c2ccc(F)cc2)c1` (single isomer, unassigned) [Example 145-isomerB, 3-(1-(4-fluorophenyl)-1H-indazol-5-yl)-2,3-diphenyl-N-(1,3,4-thiadiazol-2-yl)propanamide], the Ki in experiment [1] was found to be 1.1 nM. The EC50 in experiment [2] (7 hours) came out at 5 nM.
On to `O=C(Nc1nncs1)C(c1ccccc1)C(c1ccccc1)c1ccc2c(cnn2-c2ccc(F)cc2)c1` (single isomer, unassigned) [Example 145-isomerC, 3-(1-(4-fluorophenyl)-1H-indazol-5-yl)-2,3-diphenyl-N-(1,3,4-thiadiazol-2-yl)propanamide], for which, in experiment [1], the Ki came out at 555 nM. Further, the EC50 in experiment [2] (7 hours) was 5000 nM.
On to `O=C(Nc1nncs1)C(c1ccccc1)C(c1ccccc1)c1ccc2c(cnn2-c2ccc(F)cc2)c1` (single isomer, unassigned) [Example 145-isomerD, 3-(1-(4-fluorophenyl)-1H-indazol-5-yl)-2,3-diphenyl-N-(1,3,4-thiadiazol-2-yl)propanamide], for which the Ki in experiment [1] was determined as 2.4 nM. Also, the EC50 in experiment [2] (7 hours) worked out at 45 nM.
As to `CCOC(=O)c1cccc(-n2ncc3cc([C@H](c4ccccc4)C(C)(C)C(=O)Nc4nncs4)ccc32)c1` (stereo in doubt) [Example 95, ethyl 3-(5-(3-(1,3,4-thiadiazol-2-ylamino)-2,2-dimethyl-3-oxo-1-phenylpropyl)-1H-indazol-1-yl)benzoate], in experiment [1], the Ki turned out to be 496 nM. Also, in experiment [2] (Homo sapiens, A549, 7 h), the EC50 is more than 10000 nM.
For `Cc1ccccc1C(c1ccc2c(cnn2-c2ccc(F)cc2)c1)C(C)(C)C(=O)Nc1nccs1` (centres unmarked) [Example 40, 3-(1-(4-fluorophenyl)-1H-indazol-5-yl)-2,2-dimethyl-N-(thiazol-2-yl)-3-o-tolylpropanamide], in that order: 1.6 nM and 2.1 nM.
As for `Cc1cccc(C(c2ccc3c(cnn3-c3ccc(F)cc3)c2)C(C)(C)C(=O)Nc2nccs2)c1` (centres unmarked) [Example 41, 3-(1-(4-fluorophenyl)-1H-indazol-5-yl)-2,2-dimethyl-N-(thiazol-2-yl)-3-m-tolylpropanamide], the Ki in experiment [1] came to 2.3 nM. For the same compound, the EC50 in experiment [2] (Homo sapiens, A549, 7 h) is 2.6 nM.
In the same order, the values of `Cc1ccc(C(c2ccc3c(cnn3-c3ccc(F)cc3)c2)C(C)(C)C(=O)Nc2nccs2)cc1` (centres unmarked) [Example 42, 3-(1-(4-fluorophenyl)-1H-indazol-5-yl)-2,2-dimethyl-N-(thiazol-2-yl)-3-p-tolylpropanamide] are 1.9 nM and 3.9 nM.
`CC(C)(C(=O)Nc1nccs1)C(c1cccc(F)c1)c1ccc2c(cnn2-c2ccc(F)cc2)c1` (centres unmarked) [Example 43]: the Ki in experiment [1] is 2.9 nM. Besides, in experiment [2] (Homo sapiens, A549, 7 h), the EC50 worked out at 2.4 nM.
Regarding `CC(C)(C(=O)Nc1nccs1)C(c1ccc(F)cc1)c1ccc2c(cnn2-c2ccc(F)cc2)c1` (centres unmarked) [Example 44, 3-(4-fluorophenyl)-3-(1-(4-fluorophenyl)-1H-indazol-5-yl)-2,2-dimethyl-N-(thiazol-2-yl)propanamide], the Ki in experiment [1] amounted to 2.4 nM. Also, the EC50 in experiment [2] (Homo sapiens, A549, 7 h) turned out to be 14 nM.
Turning to `C=CCC(c1ccc2c(cnn2-c2ccc(F)cc2)c1)C(C)(C)C(=O)Nc1nncs1` (centres unmarked) [Example 45, 3-(1-(4-fluorophenyl)-1H-indazol-5-yl)-2,2-dimethyl-N-(1,3,4-thiadazol-2-yl)hex-5-enamide], the Ki in experiment [1] was determined as 2.6 nM. Further, the EC50 in experiment [2] (Homo sapiens, A549, 7 h) came out at 52 nM.
As to `CCCC(c1ccc2c(cnn2-c2ccc(F)cc2)c1)C(C)(C)C(=O)Nc1nncs1` (centres unmarked) [Example 46, 3-(1-(4-fluorophenyl)-1H-indazol-5-yl)-2,2-dimethyl-N-(1,3,4-thiadazol-2-yl)hexanamide], in experiment [1], the Ki came out at 1.7 nM. In addition, the EC50 in experiment [2] (Homo sapiens, A549, 7 h) was 18 nM.
As to `CC(C)(C(=O)Nc1nncs1)C(c1ccc2c(cnn2-c2ccc(F)cc2)c1)C1CC1` (centres unmarked) [Example 47, 3-cyclopropyl-3-(1-(4-fluorophenyl)-1H-indazol-5-yl)-2,2-dimethyl-N-(1,3,4-thiadiazol-2-yl)propanamide], in experiment [1], the Ki was found to be 1.7 nM. In addition, the EC50 in experiment [2] (Homo sapiens, A549, 7 h) was 523 nM.
For `CC(C)C(c1ccc2c(cnn2-c2ccc(F)cc2)c1)C(C)(C)C(=O)Nc1nncs1` (centres unmarked) [Example 48, 3-(1-(4-fluorophenyl)-1H-indazol-5-yl)-2,2,4-trimethyl-N-(1,3,4-thiadiazol-2-yl)pentanamide], in that order: 2.4 nM and 81 nM.
As for `Cc1ccccc1C(c1ccc2c(cnn2-c2ccc(F)cc2)c1)C(C)(C)C(=O)Nc1nncs1` (centres unmarked) [Example 49, 3-(1-(4-fluorophenyl)-1H-indazol-5-yl)-2,2-dimethyl-N-(1,3,4-thiadiazol-2-yl)-3-o-tolylpropanamide], the Ki in experiment [1] came to 1.1 nM. The EC50 in experiment [2] (Homo sapiens, A549, 7 h) worked out at 4.2 nM.
With `Cc1cccc(C(c2ccc3c(cnn3-c3ccc(F)cc3)c2)C(C)(C)C(=O)Nc2nncs2)c1` (centres unmarked) [Example 50, 3-(1-(4-fluorophenyl)-1H-indazol-5-yl)-2,2-dimethyl-N-(1,3,4-thiadiazol-2-yl)-3-m-tolylpropanamide], in experiment [1], the Ki worked out at 0.92 nM. Besides, the EC50 in experiment [2] (Homo sapiens, A549, 7 h) is 9.7 nM.
Turning to `Cc1ccc(C(c2ccc3c(cnn3-c3ccc(F)cc3)c2)C(C)(C)C(=O)Nc2nncs2)cc1` (centres unmarked) [Example 51, 3-(1-(4-fluorophenyl)-1H-indazol-5-yl)-2,2-dimethyl-N-(1,3,4-thiadiazol-2-yl)-3-p-tolylpropanamide], the Ki in experiment [1] came to 1.8 nM. In addition, the EC50 in experiment [2] (Homo sapiens, A549, 7 h) was 3.9 nM.

The record behind these values is US8067447B2, “Modulators of glucocorticoid receptor, AP-1, and/or NF-κB activity and use thereof” (Bristol-Myers Squibb Company, priority 2006, dated 2011).
